Laboratory results: patent US10471177B2, “Surface modified biological materials” (Orthobond Corporation, priority 2011, dated 2019)

Assay: Stability of gentamicin in 0.25M HCl under autoclave conditions
Format: physicochemical
Details: earlier studies

gentamicin
loss of gentamicin detection: No significant loss
